Assay results from ChEMBL document CHEMBL3639008, “Pyridopyrazines as highly selective ras-Raf-Mek-Erk signal transduction pathway inhibitors” (2014).

Target: Mitogen-activated protein kinase 1 (Homo sapiens, UniProt P28482)
Test: Cell-Free Kinase Assays: The inhibitory effect of the compounds according to the invention was tested on various serine/threonine, tyrosine and lipid kinases in enzymatic assays. Recombinant human kinases such as, for example, Erk2, were used in this case, partly as full-length kinases, partly as shortened fragments, but at least consisting of the functional kinase domains. The commercial kinase proteins (Proqinase, Upstate) were used as recombinant fusion proteins with GST (glutathion-S-transferase) or His-Tag. Depending on the type of substrate, the various kinase reactions were quantified by means of suitable ALPHA beads (Perkin-Elmer). MAPK-ALPHAs (e.g. Erk2): the test substance, 0.625 ng Erk2 (#14-173, Upstate), 10 uM ATP and 15 nM biotinylated MBP (myelin basic protein) substrate were incubated on a 384-well Optiplate (Perkin-Elmer) in a volume of 15 ul for 1 h in 25 mM Tris, 10 mM MgCl2, 0.1% Tween-20, 100 uM NaVO4, 2 mM DTT at pH 7.5.

Chain of Mitogen-activated protein kinase 1 (P28482 whole entry, the tested form may be a part): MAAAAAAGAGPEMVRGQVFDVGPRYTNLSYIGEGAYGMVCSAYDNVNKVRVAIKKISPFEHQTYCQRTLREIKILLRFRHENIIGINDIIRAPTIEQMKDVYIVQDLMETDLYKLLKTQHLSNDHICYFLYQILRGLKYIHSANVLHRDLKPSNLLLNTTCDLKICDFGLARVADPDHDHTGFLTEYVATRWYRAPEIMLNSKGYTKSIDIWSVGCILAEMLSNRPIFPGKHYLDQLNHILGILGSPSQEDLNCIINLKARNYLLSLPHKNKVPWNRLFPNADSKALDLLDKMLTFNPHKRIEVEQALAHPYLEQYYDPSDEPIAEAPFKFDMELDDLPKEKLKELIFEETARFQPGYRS

O=C(NCCCCc1ccccc1)Nc1ccc2ncc(-c3cnn(CC(F)F)c3)nc2n1
IC50: 2 nM
